In the assay the target is Tyrosine-protein phosphatase non-receptor type 7 (Homo sapiens) (UniProt P35236). Kind of assay: PTPN7 phosphatase inhibitors, biochemical, DiFMUP fluorescence, recombinant human enzyme (AID 401). As to conditions: at 50 µM, 25 °C, DTT 5 mM, stronger effect = higher value.

By inhibition is commonly meant the percentage by which the read-out fell short of the control.

Chain of Tyrosine-protein phosphatase non-receptor type 7 (Homo sapiens) (P35236 whole entry, looked up): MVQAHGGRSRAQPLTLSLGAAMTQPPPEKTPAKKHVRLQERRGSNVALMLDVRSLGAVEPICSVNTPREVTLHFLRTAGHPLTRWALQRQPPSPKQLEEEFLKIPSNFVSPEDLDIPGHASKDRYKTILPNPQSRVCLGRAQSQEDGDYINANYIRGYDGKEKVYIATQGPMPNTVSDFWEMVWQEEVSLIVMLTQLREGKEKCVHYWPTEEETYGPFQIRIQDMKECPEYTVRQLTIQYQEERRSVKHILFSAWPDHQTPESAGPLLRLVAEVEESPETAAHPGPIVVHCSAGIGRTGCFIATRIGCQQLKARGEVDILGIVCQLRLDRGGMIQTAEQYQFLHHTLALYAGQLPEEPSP

Regarding `O=C(O)c1ccc(O)cn1.OO.[O]=[V]`, the inhibition (enzyme 37.6 ng/mL) is 58.5%.

`CCn1nc(-c2ccccc2)nc2c(=O)n(C)c(=O)nc1-2`: for the setting “enzyme 55 ng/mL”, the inhibition is 16%.

`CN(N=O)c1ccc(O)c(O)c1`: the inhibition (enzyme 55 ng/mL) is 92%.

Turning to `O=C(O)c1ccc(O)c(C=Nc2ccc3oc(-c4cccc(Cl)c4Cl)nc3c2)c1`, the inhibition (enzyme 55 ng/mL) is 61%.

In the case of `O=C(O)c1ccc(O)c(C=Nc2ccc3oc(-c4ccc(F)cc4Cl)nc3c2)c1`, the inhibition (enzyme 55 ng/mL) was 100%.

In the case of `[NH-]CO.[NH-]CO.[NH-]CO.[NH-]CO.[O]=[V][O][V]=[O]`, under “enzyme 55 ng/mL”, the inhibition is 58%.

Regarding `CC1=C(C)OC(Nc2ccc(Cl)cc2C(=O)O)C=C1` (configuration not stated), the inhibition (enzyme 55 ng/mL) was 25%.

For the molecule `Cc1ccc(N=Cc2cc(C(=O)O)ccc2O)c(O)c1`, the inhibition (enzyme 55 ng/mL) is 42%.

For `Oc1c(Cl)c(Cl)c(O)c2nsnc12`, the inhibition (enzyme 55 ng/mL) was 24%.

Regarding `Cc1cccc(O)c1N=Cc1cc(C(=O)O)ccc1O`, the inhibition (enzyme 55 ng/mL) is 37%.

For the molecule `Cc1ccc(C)n1-c1cc(C(=O)O)ccc1O`, the inhibition (enzyme 55 ng/mL) was 77%.

On to `CCn1nc(-c2ccc(Cl)cc2)nc2c(=O)n(C)c(=O)nc1-2`, for which, under “enzyme 55 ng/mL”, the inhibition was 58%.

On to `Cc1ccc2nc(-c3cc(N=Cc4cc(C(=O)O)ccc4O)ccc3O)[nH]c2c1`, for which, where the note is “enzyme 55 ng/mL”, the inhibition is 98%.

As to `CCn1nc(/C=C/c2ccccc2)nc2c(=O)n(C)c(=O)nc1-2`, the inhibition (enzyme 55 ng/mL) is 39%.

Consider `NC1=NC(=O)/C(=C/C=C/c2ccc([N+](=O)[O-])o2)S1`, for which the inhibition (enzyme 55 ng/mL) is 94%.

For `Cn1nc(/C=C/c2ccccc2)nc2c(=O)n(C)c(=O)nc1-2`, the inhibition (enzyme 55 ng/mL) is 45%.

In the case of `O=C(Nc1ccc(O)cc1C(=O)O)c1ccc2c(c1)C(=O)N(CC1CCCO1)C2=O` (configuration not stated), the inhibition (enzyme 55 ng/mL) is 35%.

Take `COc1ccc(-c2nc3cc(N=Cc4cc(C(=O)O)ccc4O)ccc3o2)cc1`: the inhibition (enzyme 55 ng/mL) was 80%.

`O=C1NC(=S)NC(=O)C1=C/C=C/c1ccco1`: for the setting “enzyme 55 ng/mL”, the inhibition is 97%.

As for `O=C(O)c1ccc(O)c(C=Nc2ccc3oc(-c4cccc(Cl)c4)nc3c2)c1`, the inhibition (enzyme 55 ng/mL) was 25%.

`CC(C)CCN1C(=O)c2ccc(C(=O)Nc3ccc(O)cc3C(=O)O)cc2C1=O`: the inhibition (enzyme 55 ng/mL) was 45%.

Consider `Cc1ccc(C)n1-c1ccc(C(=O)O)cc1O`, for which the inhibition (enzyme 55 ng/mL) was 47%.

As to `CC(C)CN1C(=O)c2ccc(C(=O)Nc3ccc(O)cc3C(=O)O)cc2C1=O`, for the setting “enzyme 55 ng/mL”, the inhibition was 26%.

With `O=C(O)c1ccc(O)c(C=Nc2ccc3oc(-c4ccccc4)nc3c2)c1`, where the note is “enzyme 55 ng/mL”, the inhibition was 31%.

Take `CC(=O)c1ccc2c(c1)C1C=CCC1C(C(=O)O)N2` (configuration not stated): the inhibition (enzyme 55 ng/mL) was 89%.

As to `COc1ccc(OC)c(N=Cc2cc(C(=O)O)ccc2O)c1`, the inhibition (enzyme 55 ng/mL) was 31%.

For the molecule `OO.OO.[K+].[O]=[V].c1ccc(-c2ccccn2)nc1`, for the setting “enzyme 55 ng/mL”, the inhibition is 69%.

With `O=C1NC(=S)S/C1=C\C=C\c1ccc([N+](=O)[O-])o1`, the inhibition (enzyme 55 ng/mL) is 99%.

For `O=C(O)c1ccc([O-])cn1.OO.OO.[K+].[K+].[O]=[V]`, the inhibition (enzyme 55 ng/mL) is 76%.

As to `OO.OO.[K+].[O]=[V].c1cnc2c(c1)ccc1cccnc12`, the inhibition (enzyme 37.6 ng/mL) was 55%.

On to `Cc1cc(C)c(N2C(=O)c3ccc(C(=O)Nc4ccc(O)cc4C(=O)O)cc3C2=O)c(C)c1`, for which the inhibition (enzyme 55 ng/mL) was 44%.

As to `Cn1nc(-c2ccccc2)nc2c(=O)n(C)c(=O)nc1-2`, the inhibition (enzyme 37.6 ng/mL) is 37%.

In the case of `O=C(O)c1ccc(O)c(C=Nc2ccc3oc(-c4cc(Cl)ccc4Cl)nc3c2)c1`, the inhibition (enzyme 55 ng/mL) was 39%.

As for `O=C(O)c1ccc(O)c(N2C(=O)Nc3ccccc3N2O)c1`, under “enzyme 55 ng/mL”, the inhibition is 41%.

With `COc1cccc(-c2nc3cc(N=Cc4cc(C(=O)O)ccc4O)ccc3o2)c1`, the inhibition (enzyme 55 ng/mL) is 56%.

As to `O=C(O)c1ccc(O)c(/C=N/N(CCO)C2=NS(=O)(=O)c3ccccc32)c1`, the inhibition (enzyme 55 ng/mL) is 57%.

Consider `CCOC(=O)c1ccc(N=Cc2cc(C(=O)O)ccc2O)cc1`, for which the inhibition (enzyme 55 ng/mL) was 39%.

As to `CCn1nc(/C=C/c2ccccc2)[n+](=O)c2c(=O)n(C)c(=O)[nH]c21`, under “enzyme 55 ng/mL”, the inhibition was 32%.

Take `Cc1c(Cl)c(C)c([N+](=O)[O-])c(O)c1C=Nc1ccc(O)cc1C(=O)O`: the inhibition (enzyme 55 ng/mL) was 62%.

In the case of `O=C(O)c1ccc(O)c(C=Nc2cccc(-c3nc4ccccc4o3)c2)c1`, the inhibition (enzyme 55 ng/mL) was 40%.

Regarding `O=C([O-])c1ccccn1.OO.OO.[K+].[K+].[O]=[V]`, under “enzyme 37.6 ng/mL”, the inhibition is 71.5%.

`O=C(COc1ccc([N+](=O)[O-])cc1)Nc1ccc(O)cc1C(=O)O`: the inhibition (enzyme 55 ng/mL) is 13%.

(Values after PubChem BioAssay AID401 (SGCOxCompounds, 2006).)
